Laboratory results from US20110105626A1, “USE OF CYCLOHEXANEHEXOL DERIVATIVES FOR THE TREATMENT OF POLYGLUTAMINE DISEASES” (priority 2007, published 2011).
“Also recorded” adds a separate entry of the source.

Legend:
Type in all cases: cell-based
[1] = molecular target: T1, HttQ103P-EGFP (Homo sapiens, UniProt P42858); experiment: Aggregation of HttQ103P-EGFP in inducible PC-12 cells (visual counts by fluorescent microscopy)
T1 construct: expressed in transfected cells; host or cells: PC-12 cells, stably transfected, pIND construct induced with 5 µM ponasterone
T1 sequence (P42858 with tags, fused parts or gaps limits assumed): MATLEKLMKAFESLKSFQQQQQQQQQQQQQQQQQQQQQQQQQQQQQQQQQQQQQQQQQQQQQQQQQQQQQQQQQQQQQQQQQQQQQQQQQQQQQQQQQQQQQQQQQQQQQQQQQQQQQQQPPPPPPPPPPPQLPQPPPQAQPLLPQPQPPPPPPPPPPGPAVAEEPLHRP
Description: (§1) Inducible PC-12 cells. PC-12 cells stably transfected with pIND constructs containing HttQ103P-EGFP. The cells upon stimulation with 5 μM ponasterone for 48 hrs express poly-Q protein with a EGFP carboxy-terminal epitope tag (Apostol, B. et al., PNAS 100, 5950-5955, 2003). Chemical Compound screen in PC-12 cells. Cells were plated in 6 well plates and grown overnight, then treated with 5 μM ponasterone for 48 hrs in the presence and absence of cystamine bitartrate or scyllo-inositol. Both were dissolved in water, and added directly to cultures at a final concentration of 1-50 μM and aggregation calculated. Visual counts of aggregates and EGFP-positive cells were performed using fluorescent microscopy. At least 300 cells were counted from 5-6 fields in three wells in each of three independent experiments. Aggregation is expressed as the percentage of cells with aggregates versus total number of EGFP-positive cells. Chemical compound was assessed for cellular toxicity by evaluating cell morphology, trypan blue exclusion and cell viability. Protein Expression. Cells were plated in 6 well plates and grown overnight, then treated with 5 μM ponasterone for 48 hrs in the presence and absence of cystamine bitartrate or scyllo-inositol. Cells were lysed in hypotonic solution containing 20 mM HEPES ph 7.5, 5 mM NaCl, 10 mM NaF, 2 mM EDTA, 1% Nonidet P-40, 1 mM sodium, orthovanadate, and protease inhibitors. Protein concentration was determined using the Bradford assay and 100 μg of protein was used for western blotting. Primary antibody to poly-glutamine was used to detect HttQ103, while GAPDH was used as an internal house-keeping standard. Westerns were scanned and densitometry was used to quantify PolyQ expression.
A hallmark of polyglutamine diseases is the accumulation of intracellular aggregates in the cytosol and nucleus of neurons. Therefore, the inducible PC-12 cell lines were utilized to address the question of inhibition of HttQ103P-EFGP aggregation using scyllo-inositol and a previously identified aggregation inhibitor, cystamine bitartrate. Aggregates are readily distinguished from soluble Htt, by intense small aggregate formation versus diffuse cellular staining pattern of soluble Htt (FIG. 1). Simultaneously with induction of HttQ103P-EFGP expression, scyllo-inositol was added to the cells in a final concentration range from 0-100 μM, with 50 μM cystamine bitartrate as a positive control. Cells were photographed using fluorescence microscopy and total cells expressing EFGP counted, and cells containing aggregates. Efficacy of treatment was determined by a reduction in the percentage of cells containing EGFP aggregates (FIG. 1, 2).

[2] = molecular target: T2, Htt103Q-EGFP (Homo sapiens, UniProt P42858); experiment: Western blot of poly-Q protein expression in inducible PC-12 cells, normalized to GAPDH; settings: for Htt103Q-EGFP protein expression level (western blot): cystamine bitartrate treatment
T2 construct: expressed in transfected cells; host or cells: PC-12 cells, stably transfected, pIND construct induced with 5 µM ponasterone
T2 sequence (P42858 with tags, fused parts or gaps limits assumed): as above
Description: as §1
In order to examine changes in Htt103Q-EGFP protein concentration as a function of scyllo-inositol treatment, western blots were used (FIG. 3, 4). Cells were treated as above and then harvested for western blot analyses using a poly-glutamine specific antibody, and normalized to the housekeeping protein, GAPDH (FIG. 3). Blots were scanned and densitometry of each lane performed, to normalize for variations in protein loading pixels were normalized to those of GAPDH.

[3] = system: PC-12 cells
Description: as §1, with “Visual counts of aggregates and EGFP-positive cells were performed using fluorescent microscopy.” left out, “Protein Expression. Cells were plated in 6 well plates and grown overnight, then treated with 5 μM ponasterone for 48 hrs in the presence and absence of cystamine bitartrate or scyllo-inositol. Cells were lysed in hypotonic solution containing 20 mM HEPES ph 7.5, 5 mM NaCl, 10 mM NaF, 2 mM EDTA, 1% Nonidet P-40, 1 mM sodium, orthovanadate, and protease inhibitors.” left out, “Primary antibody to poly-glutamine was used to detect HttQ103, while GAPDH was used as an internal house-keeping standard.” left out
A hallmark of polyglutamine diseases is the accumulation of intracellular aggregates in the cytosol and nucleus of neurons. […] Cells were photographed using fluorescence microscopy and total cells expressing EFGP counted, and cells containing aggregates. […]

SMILES	Aggregation (percentage of cells with aggregates versus total EGFP-positive cells) ([1]; 50 μM cystamine bitartrate as positive control, added simultaneously with induction)	Htt103Q-EGFP protein expression level (western blot) [2]	Htt103Q-EGFP protein expression level (western blot) ([2]; listed as Cystamine bitratrate)	Cell viability, trypan blue exclusion assay [3]	Morphological examination of cells for changes associated with toxicity [3]	Concentrations at which aggregation of poly-Q repeat Htt is decreased ([1]; inducible PC-12 cells)	Lowest concentration with significant decrease in the formation of aggregates ([1]; inducible PC-12 cells, FIG. 2)	Aggregation (percentage of cells with aggregates versus total EGFP-positive cells) ([1]; scyllo-inositol 0-100 μM added simultaneously with induction, 5 μM ponasterone 48 hrs)	Aggregation (percentage of cells with aggregates versus total EGFP-positive cells) ([1]; scyllo-inositol 0-100 μM added simultaneously with induction, 5 μM ponasterone 48 hrs, listed as Scyllo-inositol)	Concentrations at which poly-Q (Htt) protein is decreased / mutant Htt degradation is enhanced ([2]; inducible PC-12 cells, western blot)	Htt103Q-EGFP protein concentration (western blot, densitometry) ([2]; scyllo-inositol concentration series, normalized to GAPDH)	poly-Q protein expression ([2]; scyllo-inositol up to 10 μM concentration)
NCCSSCCN.O=C(O)C(O)C(O)C(=O)O (stereo not drawn) [cystamine bitartrate, reference compound]	inhibits aggregate formation; also recorded: aggregated poly-Q is decreased; also recorded: decreased aggregation of poly-Q	no effect on Htt103 cellular protein concentration; also recorded: did not change protein expression levels	did not alter poly-Q protein expression									
O[C@H]1[C@H](O)[C@@H](O)[C@H](O)[C@@H](O)[C@@H]1O [scyllo-inositol]				no effect on cell viability	did not detect changes associated with toxicity	1 to 100 µM	1 µM	concentration dependent effect of decreased aggregation	concentration dependent decrease in the formation of aggregates	25 to 100 µM	concentration dependant decrease in Htt protein; also recorded: decreased the protein concentration	did not alter poly-Q protein expression
